Measured values taken from the NIST ThermoML archive (doi:10.1021/je900124n).
“And” between values parts separate entries of the source, which are not always exact repeats. Equal values may be shown once. Numbers after ± are expanded uncertainties.

Details: Fluid (supercritical or subcritical phases), Buoyancy - hydrostatic balance with magnetic suspension - two sinkers

CCC [propane]
Details | mass density
265 K, 2141.2 kPa | 542.504 ± 0.065 kg/m3
265 K, 2141.4 kPa | 542.503 ± 0.065 kg/m3
265 K, 2144 kPa | 542.507 ± 0.065 kg/m3 and 542.508 ± 0.065 kg/m3
265 K, 2144.3 kPa | 542.51 ± 0.065 kg/m3
265 K, 2144.8 kPa | 542.509 ± 0.065 kg/m3
265 K, 2145 kPa | 542.509 ± 0.065 kg/m3
265 K, 3759.4 kPa | 545.171 ± 0.066 kg/m3
265 K, 3760 kPa | 545.17 ± 0.066 kg/m3
265 K, 3760.5 kPa | 545.17 ± 0.066 kg/m3
265 K, 3766.3 kPa | 545.182 ± 0.066 kg/m3
265 K, 3771.8 kPa | 545.194 ± 0.066 kg/m3
265 K, 4142.6 kPa | 545.789 ± 0.066 kg/m3
265 K, 4145 kPa | 545.794 ± 0.066 kg/m3
265 K, 4149.1 kPa | 545.797 ± 0.066 kg/m3
265 K, 4150.8 kPa | 545.802 ± 0.066 kg/m3
265 K, 8329.8 kPa | 552.117 ± 0.067 kg/m3
265 K, 8330.5 kPa | 552.12 ± 0.067 kg/m3
265 K, 8330.7 kPa | 552.117 ± 0.067 kg/m3
265 K, 8331.9 kPa | 552.121 ± 0.067 kg/m3
265 K, 8332.3 kPa | 552.121 ± 0.067 kg/m3
265 K, 12135 kPa | 557.342 ± 0.067 kg/m3
265 K, 12136 kPa | 557.343 ± 0.067 kg/m3
265 K, 12137 kPa | 557.343 ± 0.067 kg/m3
265 K, 16242 kPa | 562.533 ± 0.068 kg/m3
265 K, 16243 kPa | 562.535 ± 0.068 kg/m3
265 K, 16245 kPa | 562.537 ± 0.068 kg/m3
265 K, 16246 kPa | 562.537 ± 0.068 kg/m3
265 K, 20184 kPa | 567.153 ± 0.068 kg/m3 and 567.155 ± 0.068 kg/m3
265 K, 20189 kPa | 567.157 ± 0.068 kg/m3
265 K, 20190 kPa | 567.159 ± 0.068 kg/m3
265 K, 20191 kPa | 567.16 ± 0.068 kg/m3
265 K, 24029 kPa | 571.368 ± 0.069 kg/m3
265 K, 24030 kPa | 571.371 ± 0.069 kg/m3
265 K, 24031 kPa | 571.373 ± 0.069 kg/m3 and 571.369 ± 0.069 kg/m3
265 K, 30007 kPa | 577.453 ± 0.07 kg/m3 and 577.455 ± 0.07 kg/m3 and 577.457 ± 0.07 kg/m3
265 K, 30010 kPa | 577.458 ± 0.07 kg/m3 and 577.459 ± 0.07 kg/m3
265 K, 34915 kPa | 582.091 ± 0.07 kg/m3
265 K, 34916 kPa | 582.091 ± 0.07 kg/m3 and 582.092 ± 0.07 kg/m3 and 582.09 ± 0.07 kg/m3
280 K, 2010.8 kPa | 522.313 ± 0.063 kg/m3
280 K, 2011 kPa | 522.314 ± 0.063 kg/m3
280 K, 2012.2 kPa | 522.319 ± 0.063 kg/m3
280 K, 2013 kPa | 522.322 ± 0.063 kg/m3
280 K, 2016.3 kPa | 522.324 ± 0.063 kg/m3
280 K, 2020 kPa | 522.336 ± 0.063 kg/m3
280 K, 2020.8 kPa | 522.337 ± 0.063 kg/m3
280 K, 2021.2 kPa | 522.338 ± 0.063 kg/m3
280 K, 2021.3 kPa | 522.335 ± 0.063 kg/m3
280 K, 2021.4 kPa | 522.337 ± 0.063 kg/m3
280 K, 4077.8 kPa | 526.538 ± 0.064 kg/m3
280 K, 4078.2 kPa | 526.542 ± 0.064 kg/m3
280 K, 4078.3 kPa | 526.539 ± 0.064 kg/m3
280 K, 4078.4 kPa | 526.539 ± 0.064 kg/m3
280 K, 8037.8 kPa | 533.834 ± 0.064 kg/m3
280 K, 8038.9 kPa | 533.835 ± 0.064 kg/m3
280 K, 8039.6 kPa | 533.833 ± 0.064 kg/m3
280 K, 8040 kPa | 533.836 ± 0.064 kg/m3
280 K, 8040.4 kPa | 533.836 ± 0.064 kg/m3
280 K, 12164 kPa | 540.567 ± 0.065 kg/m3
280 K, 12165 kPa | 540.568 ± 0.065 kg/m3
280 K, 12166 kPa | 540.568 ± 0.065 kg/m3
280 K, 12167 kPa | 540.57 ± 0.065 kg/m3
280 K, 16052 kPa | 546.301 ± 0.066 kg/m3 and 546.302 ± 0.066 kg/m3
280 K, 16053 kPa | 546.299 ± 0.066 kg/m3 and 546.301 ± 0.066 kg/m3
280 K, 16054 kPa | 546.301 ± 0.066 kg/m3
280 K, 20169 kPa | 551.856 ± 0.067 kg/m3
280 K, 20170 kPa | 551.857 ± 0.067 kg/m3
280 K, 20171 kPa | 551.857 ± 0.067 kg/m3
280 K, 20173 kPa | 551.86 ± 0.067 kg/m3
280 K, 24174 kPa | 556.843 ± 0.067 kg/m3
280 K, 24175 kPa | 556.845 ± 0.067 kg/m3
280 K, 24178 kPa | 556.848 ± 0.067 kg/m3
280 K, 29900 kPa | 563.396 ± 0.068 kg/m3 and 563.395 ± 0.068 kg/m3
280 K, 29902 kPa | 563.397 ± 0.068 kg/m3 and 563.398 ± 0.068 kg/m3
280 K, 35491 kPa | 569.254 ± 0.069 kg/m3
280 K, 35492 kPa | 569.255 ± 0.069 kg/m3
280 K, 35494 kPa | 569.255 ± 0.069 kg/m3
280 K, 35496 kPa | 569.259 ± 0.069 kg/m3
300 K, 2095.9 kPa | 492.916 ± 0.06 kg/m3
300 K, 2096.6 kPa | 492.92 ± 0.06 kg/m3
300 K, 2096.7 kPa | 492.918 ± 0.06 kg/m3
300 K, 2096.8 kPa | 492.918 ± 0.06 kg/m3
300 K, 2097 kPa | 492.917 ± 0.06 kg/m3
300 K, 4036.5 kPa | 498.494 ± 0.06 kg/m3
300 K, 4037.2 kPa | 498.496 ± 0.06 kg/m3
300 K, 4037.3 kPa | 498.493 ± 0.06 kg/m3
300 K, 4037.4 kPa | 498.494 ± 0.06 kg/m3
300 K, 8037.7 kPa | 508.391 ± 0.061 kg/m3
300 K, 8038 kPa | 508.393 ± 0.061 kg/m3
300 K, 8038.1 kPa | 508.394 ± 0.061 kg/m3
300 K, 8038.4 kPa | 508.391 ± 0.061 kg/m3
300 K, 8038.7 kPa | 508.393 ± 0.061 kg/m3
300 K, 12024 kPa | 516.758 ± 0.062 kg/m3
300 K, 12025 kPa | 516.758 ± 0.062 kg/m3 and 516.759 ± 0.062 kg/m3
300 K, 16033 kPa | 524.122 ± 0.063 kg/m3 and 524.123 ± 0.063 kg/m3
300 K, 16035 kPa | 524.125 ± 0.063 kg/m3
300 K, 16037 kPa | 524.128 ± 0.063 kg/m3
300 K, 20366 kPa | 531.21 ± 0.064 kg/m3
300 K, 20369 kPa | 531.216 ± 0.064 kg/m3
300 K, 20370 kPa | 531.214 ± 0.064 kg/m3
300 K, 23908 kPa | 536.474 ± 0.065 kg/m3 and 536.475 ± 0.065 kg/m3
300 K, 23909 kPa | 536.476 ± 0.065 kg/m3
300 K, 23911 kPa | 536.479 ± 0.065 kg/m3
300 K, 29891 kPa | 544.528 ± 0.066 kg/m3
300 K, 29892 kPa | 544.529 ± 0.066 kg/m3 and 544.528 ± 0.066 kg/m3
300 K, 35152 kPa | 550.916 ± 0.066 kg/m3
300 K, 35153 kPa | 550.918 ± 0.066 kg/m3 and 550.916 ± 0.066 kg/m3
300 K, 35154 kPa | 550.917 ± 0.066 kg/m3
310 K, 261.67 kPa | 4.6501 ± 0.0029 kg/m3
310 K, 261.68 kPa | 4.6501 ± 0.0029 kg/m3 and 4.6502 ± 0.0029 kg/m3
310 K, 261.69 kPa | 4.6502 ± 0.0029 kg/m3
310 K, 460.64 kPa | 8.455 ± 0.0034 kg/m3 and 8.4548 ± 0.0034 kg/m3 and 8.4549 ± 0.0034 kg/m3
310 K, 760.19 kPa | 14.7402 ± 0.0041 kg/m3
310 K, 760.2 kPa | 14.7403 ± 0.0041 kg/m3
310 K, 760.25 kPa | 14.7415 ± 0.0041 kg/m3
310 K, 760.28 kPa | 14.7419 ± 0.0041 kg/m3 and 14.7421 ± 0.0041 kg/m3
